Assay results as given in patent US20140296137A1, “METHODS AND COMPOSITIONS FOR CONTROLLING ROTIFERS” (Los Alamos National Security, LLC, priority 2013, published 2014).
Ends that are not written are not given here.

How the values were obtained:
[1] = test system: Chlamydomonas reinhardtii; settings: 5-6 days, room temperature, 96-well, algae colour under 20× microscope; ND = AMP killed all the algae
Procedure: (§1) This example provides the minimal inhibitory concentration (MIC) of antimicrobial peptides (AMPs) for algae. […] Therefore, the tolerance of algae to the AMPs listed in Table 2 of Example 1 was measured.
(§2) Briefly, the algae viability assay used herein measured the “health” of the algae cultures by looking at the color of the algae. […] A visual assay was used to determine the MIC for the individual AMPs on the algae. In each case, a light microscope with 20× magnification was used to observe algae color.
(§3) The effect of insecticidal and non-insecticidal AMPs on three different algae species was measured. The three algae species were Auxenochlorella protothecoides, Chlorella sorokiniana and Chlamydomonas reinhardtii.
(§4) Algae cultures were initiated in 96-well plates at an OD 750 of approximately 0.1. […] The antibiotics hygromycin and paromycin served as positive controls for inhibiting and/or reducing the growth rate of algae. […] The algae cultures were monitored by preparing microscopy slides with a small sample taken from the individual wells. The algae slides were then visualized under a 20× magnification microscope for algae viability as measured by algae color.

Chlorella protothecoides = settings: 5-6 days, room temperature, 96-well, algae colour under 20× microscope; ND = AMP killed all the algae
Procedure: as §1, §2, §3, §4

Chlorella sorokiniana = settings: 5-6 days, room temperature, 96-well, algae colour under 20× microscope; ND = AMP killed all the algae
Procedure: as §1, §2, §3, §4

Adineta vaga = assay type: in vivo; design: key to the marks not given beside the values; settings: AMP 0.5 mg/mL, 24 hr time point, room temperature, visual motility score
From the text: (§5) Briefly, the rotifer motility assay used herein in the presence of a biocontrol agent (e.g., AMP) may be used as a measure of relative rotifer viability and competency. Rotifer diet, of which algae is considered to be an important food source, is one of the key environmental factors that impact the growth and multiplication of rotifers. In effect, the inability of a rotifer to be mobile (i.e., inability to swim toward a food source and/or to have mobile cilia that help trap food) prevents the rotifer from ingesting sufficient nutrients to further grow and reproduce. Thus, any approach that reduces and/or inhibits rotifer motility has a significant impact on an individual rotifer and therefore rotifer populations. With respect to algae cultures, reducing and/or inhibiting rotifer motility prevents and/or reduces any negative impact rotifers have on algae cultures (e.g., open pond systems for algae biomass and biofuel production). In other words, reducing and/or inhibiting rotifer motility reduces and/or prevents rotifers (e.g., infestations) from ingesting and consequently damaging algae cultures use in biofuel production.
(§6) The effect of the insecticidal and non-insecticidal AMPs of Table 2 (Example 1) on three different rotifer species was measured. The three rotifer species were Adineta vaga and Philodina acuticornis (class Bdelloid rotifers), and Brachionus (Monogononta class). A visual motility assay was used to determine the impact of the individual AMPs on rotifer viability. In each case, a light microscope with 20× magnification was used to observe rotifer motility (activity). […] FIGS. 1A, 1C and 1E show a 20× magnification of Adineta vaga, Philodina acuticornis and Brachionus (untreated), respectively. FIGS. 1B, 1D and 1F show a 20× magnification of Adineta vaga, Philodina acuticornis and Brachionus (AMP treated), respectively.
(§7) Rotifer cultures were initiated in 12-well or 24-well plates at a density of approximately 100-200 rotifers/mL. The 12-well plates contained a volume of 1 mL per well, and the 24-well plates contained a volume of about 0.25 mL to about 0.35 mL per well. Individual rotifer cultures (individual wells) were incubated with a select AMP at a concentration of 0.5 mg/mL (or a range of about 78 μM to about 365 μM) for 18, 21 and 24 hours at room temperature. The rotifer cultures were monitored by preparing microscopy slides with a small sample taken from the individual wells. The slides were then visualized under a 20× magnification microscope for rotifer motility. […] The scoring system was based on observing a subset of the rotifer population from each well. The impact on the subset of rotifers observed served as a representative of the impact on the entire rotifer population for that particular AMP treatment.
(§8) A summary of the motility assay (or “Kill Assay”) for each insecticidal and non-insecticidal AMP incubated with the three different rotifer species for the 24 hour time point is provided below in Table 5 (insecticidal AMPs) and Table 6 (non-insecticidal AMPs). The 18 and 21 hour time points gave similar results to the 24 hour time point.

Philodina acuticornis = assay type: in vivo; design: key to the marks not given beside the values; settings: AMP 0.5 mg/mL, 24 hr time point, room temperature, visual motility score
From the text: as §5, §6, §7, §8

Brachionus = assay type: in vivo; settings: AMP 0.5 mg/mL, 24 hr time point, room temperature, visual motility score
From the text: as §5, §6, §7, §8

three algae species = assay: Algae viability assay, summary statements over the three algae species; assay type: cell-based; settings: comparison of Tables 3 and 4 with Tables 5 and 6
Procedure: as §1, §2, §3
Algae cultures were initiated in 96-well plates at an OD 750 of approximately 0.1. […] The antibiotics hygromycin and paromycin served as positive controls for inhibiting and/or reducing the growth rate of algae. Algae cultured in water or media served as a negative control (i.e., no effect on growth). The algae cultures were monitored by preparing microscopy slides with a small sample taken from the individual wells. The algae slides were then visualized under a 20× magnification microscope for algae viability as measured by algae color. […]

three rotifer species = assay: Rotifer visual motility assay, summary statements over the three rotifer species; assay type: in vivo, Adineta vaga, Philodina acuticornis and Brachionus; settings: AMP 0.5 mg/mL
From the text: as §5, with “In other words, reducing and/or inhibiting rotifer motility reduces and/or prevents rotifers (e.g., infestations) from ingesting and consequently damaging algae cultures use in biofuel production.” left out
The effect of the insecticidal and non-insecticidal AMPs of Table 2 (Example 1) on three different rotifer species was measured. […]
Rotifer cultures were initiated in 12-well or 24-well plates at a density of approximately 100-200 rotifers/mL. […] The rotifer cultures were monitored by preparing microscopy slides with a small sample taken from the individual wells. […]

Sequence | Minimal Inhibitory Concentration (MIC) Chlamydomonas reinhardtii [1] [µM] | Minimal Inhibitory Concentration (MIC) Chlorella protothecoides (Chlorella protothecoides) | Minimal Inhibitory Concentration (MIC) Chlorella sorokiana (Chlorella sorokiniana) [µM] | “Kill” Efficiency Adineta vaga (Adineta vaga) | “Kill” Efficiency Philodina (Philodina acuticornis) | “Kill” Efficiency Brachionus (Brachionus) | tolerance of algae to the AMP (in words) (three algae species) | negative impact on rotifer motility (in words) (three rotifer species)
FIGTALGIASAIPAIVKLFK [Ponericin W6] | 61.6 | No Affect | 492.5 | ++ | ++ | +++ | highly tolerated by algae | high negative impact
FLPLIGKVLSGIL [Temporin F, Temporin-F] | 91.3 | 365 µM | 730.7 | – | – | – | highly tolerated by algae | high negative impact
KWKLFKKIGIGKFLHWAKKF [W16-CA(1-8)-MA(1-12)] | 12.5 | ND (kills) | 25 | +++ | +++ | + | – | –
GIWGTLAKIGIKAVPRVISMLKKKKQ [Ponericin W3] | 5.5 | 21.8 µM | 87.3 | +++ | +++ | +++ | – | –
